According to ChEMBL document CHEMBL5532696, “Discovery of new tricyclic spiroindole derivatives as potent P-glycoprotein inhibitors for reversing multidrug resistance enabled by a synthetic methodology-based library” (RSC Med Chem, 2024):

Key:
Eca-109/VCR [1] = test: Antiproliferative activity against human Eca-109/VCR cells assessed as cell viability at 5 uM incubated for 48 hrs by CCK-8 assay (reference value: 100 +/- 1.8%); type: functional; settings: read-out: Activity
Eca-109/VCR [2] = test: Reversal of vincristine resistance in human Eca-109/VCR cells assessed as reversal fold by measuring ratio of vincristine IC50 to vincristine IC50 in presence of test compound at 5 uM incubated for 48 hrs by CCK8 assay; type: functional
Eca-109/VCR [3] = test: Reversal of vincristine resistance in human Eca-109/VCR cells assessed as reduction in cell viability incubated for 48 hrs by CCK-8 assay; type: functional, cell-based
ECa-109 cell line = test: Antiproliferative activity against human Eca-109 cells assessed as reduction in cell viability incubated for 48 hrs by CCK-8 assay; type: functional, cell-based; settings: ECa-109, 48 h
Eca-109/VCR [4] = test: Induction of apoptosis in human Eca-109/VCR cells assessed as early apoptotic cells at 5 uM incubated for 48 hrs by Annexin V-FITC/DAPI staining based flow cytometry analysis (reference value: 0.97 %); type: functional
Eca-109/VCR [5] = test: Induction of apoptosis in human Eca-109/VCR cells assessed as late apoptotic cells at 5 uM incubated for 48 hrs by Annexin V-FITC/DAPI staining based flow cytometry analysis (reference value: 4.31 %); type: functional
Eca-109/VCR [6] = test: Induction of apoptosis in human Eca-109/VCR cells assessed as necrotic cells at 5 uM incubated for 48 hrs by Annexin V-FITC/DAPI staining based flow cytometry analysis (reference value: 0.073 %); type: functional
Eca-109/VCR [7] = test: Induction of apoptosis in human Eca-109/VCR cells assessed as necrotic cells at 5 uM incubated for 48 hrs in presence of vincristine at 50 nM by Annexin V-FITC/DAPI staining based flow cytometry analysis (reference value: 0.062 %); type: functional
Eca-109/VCR [8] = test: Induction of apoptosis in human Eca-109/VCR cells assessed as late apoptotic cells at 5 uM incubated for 48 hrs in presence of vincristine at 50 nM by Annexin V-FITC/DAPI staining based flow cytometry analysis (reference value: 5.06 %); type: functional
Eca-109/VCR [9] = test: Induction of apoptosis in human Eca-109/VCR cells assessed as early apoptotic cells at 5 uM incubated for 48 hrs in presence of vincristine at 50 nM by Annexin V-FITC/DAPI staining based flow cytometry analysis (reference value: 1.33 %); type: functional
Eca-109/VCR [10] = test: Induction of apoptosis in human Eca-109/VCR cells assessed as viable cells at 5 uM incubated for 48 hrs by Annexin V-FITC/DAPI staining based flow cytometry analysis (reference value: 94.6 %); type: functional; settings: read-out: Activity
Eca-109/VCR [11] = test: Induction of apoptosis in human Eca-109/VCR cells assessed as viable cells at 5 uM incubated for 48 hrs in presence of vincristine at 50 nM by Annexin V-FITC/DAPI staining based flow cytometry analysis (reference value: 93.5 %); type: functional; settings: read-out: Activity

Row | Structure (SMILES) | viability at 5 µM (Eca-109/VCR [1]) [%] | Ratio IC50 (Eca-109/VCR [2]) | further results
1 | O=C1c2cc([N+](=O)[O-])ccc2C2C1C(c1ccccc1)C(C(=O)c1ccccc1)C2C(F)(F)F (stereo unspecified) | 56.3 |  | 
2 | CCOC(=O)C1C2c3ccc(Br)cc3C(=O)C2C(c2ccccc2)C12C(=O)N(C)c1ccccc12 (stereo unspecified) | 100 | 16.7 | 
3 | O=C1c2cc([N+](=O)[O-])ccc2C2C1C(c1ccccc1)C1(Oc3ccccc3C1=O)C2c1ccccc1 (stereo unspecified) | 99.1 | 15.2 | 
4 | CN1C(=O)C2(c3ccccc31)C(C(=O)OC(C)(C)C)C1c3ccc([N+](=O)[O-])cc3C(=O)C1C2c1ccccc1 (stereo unspecified) | 103 | 56.1 | 
5 | COc1cc2c(c(OC)c1OC)-c1ccc(OC)c(=O)cc1[C@@H](NC(C)=O)CC2 [COLCHICINE] |  |  | IC50 (Eca-109/VCR [3]): 3.63 µM; IC50 (ECa-109 cell line): 0.012 µM
6 | CCOC(=O)C1C2c3ccc([N+](=O)[O-])cc3C(=O)C2C(c2ccc(C(F)(F)F)cc2)C12C(=O)N(C)c1ccccc12 (stereo unspecified) | 97.9 | 39.2 | 
7 | COc1cccc2c1C(=O)c1c(O)c3c(c(O)c1C2=O)C[C@@](O)(C(=O)CO)C[C@@H]3O[C@H]1C[C@H](N)[C@H](O)[C@H](C)O1 [DOXORUBICIN] |  |  | IC50 (Eca-109/VCR [3]): 20.2 µM; IC50 (ECa-109 cell line): 2.07 µM
8 | COc1ccc(CCN(C)CCCC(C#N)(c2ccc(OC)c(OC)c2)C(C)C)cc1OC (stereo unspecified) [VERAPAMIL] | 98.9 | 107.9 | Activity (Eca-109/VCR [4]): 2.86%; Activity (Eca-109/VCR [5]): 3.05%; Activity (Eca-109/VCR [6]): 0.049%; Activity (Eca-109/VCR [7]): 0.32%; Activity (Eca-109/VCR [8]): 3.93%; Activity (Eca-109/VCR [9]): 12.1%; viability at 5 µM (Eca-109/VCR [10]): 94%; viability at 5 µM (Eca-109/VCR [11]): 83.6%
9 | O=C1c2cc([N+](=O)[O-])ccc2C2C1C(c1ccccc1)C1(Cc3ccccc3C1=O)C2c1ccccc1 (stereo unspecified) | 85.2 | 34.8 | 
10 | CCOC(=O)C1C2c3ccc([N+](=O)[O-])cc3C(=O)C2C(c2ccccc2)C12C(=O)N(C)c1cc(OC)ccc12 (stereo unspecified) | 90.5 | 53.2 | 
11 | O=C1c2cc([N+](=O)[O-])ccc2C2C1C(c1ccccc1)C([N+](=O)[O-])C2c1ccccc1 (stereo unspecified) | 78.2 | 49.9 | 
12 | CCOC(=O)C1C2c3ccc([N+](=O)[O-])cc3C(=O)C2C(c2ccccc2)C12C(=O)N(C)c1c(C)cc(C)cc12 (stereo unspecified) | 89.7 | 2.3 | 
13 | CCOC(=O)C1C2c3ccc([N+](=O)[O-])cc3C(=O)C2C(c2ccccc2Br)C12C(=O)N(C)c1ccccc12 (stereo unspecified) | 96.4 | 1.8 | 
14 | CCOC(=O)C1C2c3ccc([N+](=O)[O-])cc3C(=O)C2C(c2ccco2)C12C(=O)N(C)c1ccccc12 (stereo unspecified) | 102 | 12.7 | 
15 | O=C1c2c(O)ccc(O)c2C(=O)c2c(NCCNCCO)ccc(NCCNCCO)c21 [MITOXANTRONE] |  |  | IC50 (Eca-109/VCR [3]): 5.87 µM; IC50 (ECa-109 cell line): 0.646 µM
16 | CCOC(=O)C1C2c3ccc([N+](=O)[O-])cc3C(=O)C2C(c2ccccc2)C12C(=O)N(C)c1ccc(OC(F)(F)F)cc12 (stereo unspecified) | 91.9 | 1.7 | 
17 | CCOC(=O)C1C2c3ccc([N+](=O)[O-])cc3C(=O)C2C(c2ccccc2)C12C(=O)N(C)c1c(C)cccc12 (stereo unspecified) | 102 | 38.9 | 
18 | CCOC(=O)C1C2c3ccc([N+](=O)[O-])cc3C(=O)C2C(c2cccc(OC)c2)C12C(=O)N(C)c1ccccc12 (stereo unspecified) | 99.7 | 3 | 
19 | CN1C(=O)C2(c3cccc(Br)c31)C(C(=O)OC(C)(C)C)C1c3ccc([N+](=O)[O-])cc3C(=O)C1C2c1ccccc1 (stereo unspecified) | 99.8 | 38.6 | 

Row | Structure (SMILES) | viability at 5 µM (Eca-109/VCR [1]) [%] | Ratio IC50 (Eca-109/VCR [2]) | further results
20 | CN1C(=O)C2(c3cc(Cl)ccc31)C(C(=O)NC(C)(C)C)C1c3ccc([N+](=O)[O-])cc3C(=O)C1C2c1ccccc1 (stereo unspecified) | 97.5 | 659.1 | 
21 | COC(=O)C1C(C(=O)c2ccccc2)C(c2ccccc2)C2C(=O)c3cc([N+](=O)[O-])ccc3C12 (stereo unspecified) | 75.2 | 12.3 | 
22 | CCOC(=O)C1C2c3ccc([N+](=O)[O-])cc3C(=O)C2C(c2ccccc2C)C12C(=O)N(C)c1ccccc12 (stereo unspecified) | 92.2 | 14.7 | 
23 | COc1cc2c(cc1OC)CN(CCc1ccc(NC(=O)c3cc(OC)c(OC)cc3NC(=O)c3cnc4ccccc4c3)cc1)CC2 [TARIQUIDAR] | 84.8 | 364.3 | Activity (Eca-109/VCR [4]): 4.28%; Activity (Eca-109/VCR [5]): 3.35%; Activity (Eca-109/VCR [6]): 0.1%; Activity (Eca-109/VCR [7]): 0.68%; Activity (Eca-109/VCR [8]): 6.59%; Activity (Eca-109/VCR [9]): 13.8%; viability at 5 µM (Eca-109/VCR [10]): 92.3%; viability at 5 µM (Eca-109/VCR [11]): 79%
24 | CN1C(=O)C2(c3cc(Br)ccc31)C(C(=O)OC(C)(C)C)C1c3ccc([N+](=O)[O-])cc3C(=O)C1C2c1ccccc1 (stereo unspecified) | 105 | 2.9 | 
25 | CCOC(=O)C1C2c3c(cccc3[N+](=O)[O-])C(=O)C2C(c2ccccc2)C12C(=O)N(C)c1ccccc12 (stereo unspecified) | 102 | 10.5 | 
26 | CCOC(=O)C1C2c3ccc([N+](=O)[O-])cc3C(=O)C2C(c2ccccc2)C12C(=O)N(C)c1ccccc12 (stereo unspecified) | 102 | 86.8 | 
27 | CN1C(=O)C2(c3cc(F)ccc31)C(C(=O)OC(C)(C)C)C1c3ccc([N+](=O)[O-])cc3C(=O)C1C2c1ccccc1 (stereo unspecified) | 101 | 6.6 | 
28 | CS(=O)(=O)CCNCc1ccc(-c2ccc3ncnc(Nc4ccc(OCc5cccc(F)c5)c(Cl)c4)c3c2)o1 [LAPATINIB] |  |  | IC50 (Eca-109/VCR [3]): 6.69 µM; IC50 (ECa-109 cell line): 9.16 µM
29 | CCOC(=O)C1C2c3ccc([N+](=O)[O-])cc3C(=O)C2C(c2ccc(Br)cc2)C12C(=O)N(C)c1ccccc12 (stereo unspecified) | 85.1 | 11.7 | 
30 | CCOC(=O)C1C2c3ccc([N+](=O)[O-])cc3C(=O)C2C(c2ccc(C)cc2)C12C(=O)N(C)c1ccccc12 (stereo unspecified) | 102 | 24.7 | 
31 | CN1C(=O)C2(c3cc(Cl)ccc31)C(C(=O)OC(C)(C)C)C1c3ccc([N+](=O)[O-])cc3C(=O)C1C2c1ccccc1 (stereo unspecified) | 98.2 | 388.1 | 
32 | CC(=O)O[C@@]12CO[C@@H]1C[C@H](O)[C@@]1(C)C(=O)[C@H](O)C3=C(C)[C@@H](OC(=O)[C@H](O)[C@@H](NC(=O)OC(C)(C)C)c4ccccc4)C[C@@](O)([C@@H](OC(=O)c4ccccc4)[C@H]21)C3(C)C [DOCETAXEL ANHYDROUS] |  |  | IC50 (Eca-109/VCR [3]): 9.73 µM; IC50 (ECa-109 cell line): 0.773 µM
33 | CCOC(=O)C1C2c3ccc([N+](=O)[O-])cc3C(=O)C2C(c2ccccc2)C12C(=O)N(C)c1ccc(OC)cc12 (stereo unspecified) | 99.4 | 16.4 | 
34 | CCOC(=O)C1C2c3ccc(-n4cc(-c5ccccc5)nn4)cc3C(=O)C2C(c2ccccc2)C12C(=O)N(C)c1ccccc12 (stereo unspecified) | 98.9 | 56.1 | 
35 | O=C1c2cc([N+](=O)[O-])ccc2C2C1C(c1ccccc1)C1(C(=O)c3ccccc3C1=O)C2c1ccccc1 (stereo unspecified) | 96.6 | 57.1 | 
36 | CCOC(=O)C1C2c3ccc([N+](=O)[O-])cc3C(=O)C2C(c2cccc(C)c2)C12C(=O)N(C)c1ccccc12 (stereo unspecified) | 102 | 56.7 | 
37 | CCOC(=O)C1C2c3ccc([N+](=O)[O-])cc3C(=O)C2C(C2CC2)C12C(=O)N(C)c1ccccc12 (stereo unspecified) | 96.2 | 2.5 | 
38 | CN1C(=O)C2(c3ncccc31)C(C(=O)OC(C)(C)C)C1c3ccc([N+](=O)[O-])cc3C(=O)C1C2c1ccccc1 (stereo unspecified) | 104 | 33.6 | 
